Data on 17 compounds can be found in patent publication US20220089575A1, “FARNESOID X RECEPTOR AGONISTS AND USES THEREOF” (Metacrine, Inc., priority 2017, published 2022).

The assay addresses T1, hFXR (Homo sapiens, UniProt Q96RI1).
T1 construct: expressed in transfected cells; host or cells: CV-1 cells
T1 sequence (Q96RI1 1-486): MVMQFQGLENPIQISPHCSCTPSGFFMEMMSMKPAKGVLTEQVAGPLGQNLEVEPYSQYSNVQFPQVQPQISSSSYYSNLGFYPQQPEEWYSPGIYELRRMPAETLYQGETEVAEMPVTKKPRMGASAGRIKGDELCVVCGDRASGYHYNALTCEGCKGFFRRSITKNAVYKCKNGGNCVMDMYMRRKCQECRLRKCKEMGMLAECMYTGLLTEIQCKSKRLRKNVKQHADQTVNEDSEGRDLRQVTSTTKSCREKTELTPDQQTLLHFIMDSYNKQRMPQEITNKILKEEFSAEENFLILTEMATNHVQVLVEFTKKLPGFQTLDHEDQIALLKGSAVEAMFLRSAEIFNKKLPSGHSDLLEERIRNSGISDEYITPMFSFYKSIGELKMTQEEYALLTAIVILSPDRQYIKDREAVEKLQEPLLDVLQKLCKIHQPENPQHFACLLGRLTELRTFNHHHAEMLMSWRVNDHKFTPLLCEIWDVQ
T1 sequence (P19793 1-462 partner): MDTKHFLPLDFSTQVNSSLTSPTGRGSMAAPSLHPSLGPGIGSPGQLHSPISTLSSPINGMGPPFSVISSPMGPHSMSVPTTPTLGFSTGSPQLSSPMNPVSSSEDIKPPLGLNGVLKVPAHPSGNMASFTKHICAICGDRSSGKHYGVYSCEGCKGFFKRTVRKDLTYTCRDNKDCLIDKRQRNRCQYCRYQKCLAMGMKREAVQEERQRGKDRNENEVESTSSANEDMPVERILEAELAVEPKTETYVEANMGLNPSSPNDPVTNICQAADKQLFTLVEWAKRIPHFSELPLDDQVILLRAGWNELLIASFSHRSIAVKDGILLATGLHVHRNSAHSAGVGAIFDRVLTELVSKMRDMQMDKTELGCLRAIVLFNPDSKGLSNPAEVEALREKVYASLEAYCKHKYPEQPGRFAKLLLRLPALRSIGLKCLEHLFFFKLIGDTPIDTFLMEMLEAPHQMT
In words: In Vitro FXR Assay (TK): TK-ECRE-luc reporter in transfected CV-1 cells. It counts as cell-based. Particulars: 18 hrs, luminescence, maximum efficacy of <25% of the Fexarmine control classified as '+'. How it is done:
CV-1 cells were seeded at a density of 2,000,000 cells in a T175 flask with DMEM+10% charcoal double-stripped FBS and incubated at 37° C. in 5% CO2 for 18 h (O/N).
After 18 h of incubation, the medium in the T175 flask was changed with fresh DMEM+10% charcoal super-stripped serum. In a polypropylene tube, 2500 μL OptiMEM (Life Technologies, Cat #31985-062) was combined with expression plasmids for hFXR, hRXR, TK-ECRE-luc and pCMX-YFP. The tube was then briefly vortexed and incubated at room temperature for 5 minutes. Transfection reagent (X-tremeGENE HP from Roche, Cat #06 366 236 001) was added to the OptiMEM/plasmid mixture vortexed and incubated at room temperature for 20 minutes. Following incubation, the transfection reagent/DNA mixture complex was added to cells in the T175 flask and the cells were incubated at 37° C. in 5% CO2 for 18 h (O/N).
Compounds were serially diluted in DMSO and added to transfected CV-1 cells. The cells were then incubated for 18 hrs. The next day cells were lysed and examined for luminescence.

Molecules are shown by their SMILES.

On to `COc1ccc([C@H]2CC[C@H](CN(c3cc(-c4coc(C5CC5)n4)ccn3)C(=O)[C@H]3CC[C@H](OC(=O)N4CC(C(C)(C)O)C4)CC3)CC2)nc1C` [Compound 7.99, trans-4-((4-(2-Cyclopropyloxazol-4-yl)pyridine-2-yl)((trans-4-(5-methoxy-6-methylpyridin-2-yl)cyclohexyl)methyl)carbamoyl)cyclohexyl 3-(2-hydroxypropan-2-yl)azetidine-1-carboxylate], for which the EC50 is at most 250 nM. The figure for `CNC(=O)O[C@H]1CC[C@H](C(=O)N(C[C@H]2CC[C@H](c3ccc(OC)c(C)c3)CC2)c2cc(-c3cnn(C(C)C)c3)ccn2)CC1` [Compound 5.12, trans-4-((4-(1-Isopropyl-1H-pyrazol-4-yl)pyridin-2-yl)((trans-4-(4-methoxy-3-methylphenyl)cyclohexyl)methyl)carbamoyl)cyclohexyl methylcarbamate] is at most 250 nM; for `COc1ccc([C@H]2CC[C@H](CN(c3cc(-c4coc(C5CC5)n4)ccn3)C(=O)[C@H]3CC[C@H](OC(=O)NCCO)CC3)CC2)nc1C` [Compound 4.24, trans-4-((4-(2-Cyclopropyloxazol-4-yl)pyridine-2-yl)((trans-4-(5-methoxy-6-methylpyridin-2-yl)cyclohexyl)methyl)carbamoyl)cyclohexyl (2-hydroxyethyl)carbamate] it is at most 250 nM.

`COc1ccc([C@H]2CC[C@H](CN(c3cc(-c4coc(C5CC5)n4)ccn3)C(=O)[C@H]3CC[C@H](OC(=O)N4CC(C#N)C4)CC3)CC2)nc1C` [Compound 7.88, trans-4-((4-(2-Cyclopropyloxazol-4-yl)pyridine-2-yl)((trans-4-(5-methoxy-6-methylpyridin-2-yl)cyclohexyl)methyl)carbamoyl)cyclohexyl 3-cyanoazetidine-1-carboxylate]: the EC50 was at most 250 nM. In the case of `CNC(=O)O[C@H]1CC[C@H](C(=O)N(CC23CCC(c4ccc(N(C)C)nc4)(CC2)CC3)c2cccc(-c3cnn(C4CC4)c3)c2)CC1` [Compound 3.03, 4-((3-(1-Cyclopropyl-1H-pyrazol-4-yl)phenyl)((4-(6-(dimethylamino)pyridin-3-yl)bicyclo[2.2.2]octan-1-yl)methyl)carbamoyl)cyclohexyl trans-methylcarbamate], the EC50 was at most 250 nM. With `COc1ccc(C23CCC(CN(c4cccc(-c5cnn(C6CC6)c5)c4)C(=O)[C@H]4CC[C@H](OC(=O)N5CC(O)C5)CC4)(CC2)CC3)cc1C` [Compound 7.12, 4-((3-(1-Cyclopropyl-1H-pyrazol-4-yl)phenyl)((4-(4-methoxy-3-methylphenyl)bicyclo[2.2.2]octan-1-yl)methyl)carbamoyl)cyclohexyl trans-3-hydroxyazetidine-1-carboxylate] the figure was at most 250 nM. With `COc1ccc([C@H]2CC[C@H](CN(c3cccc(-c4cnn(C5CC5)c4)c3)C(=O)[C@H]3CC[C@H](OC(=O)NC4CN(C(=O)OC(C)(C)C)C4)CC3)CC2)cc1C` [Compound 4.17, tert-Butyl 3-((((trans-4-((3-(1-cyclopropyl-1H-pyrazol-4-yl)phenyl)((trans-4-(4-methoxy-3-methylphenyl)cyclohexyl)methyl)carbamoyl)cyclohexyl)oxy)carbonyl)amino)azetidine-1-carboxylate] the figure was at most 250 nM; with `CNC(=O)O[C@H]1CC[C@H](C(=O)N(C[C@H]2CC[C@H](c3ccc(OC)c(C#N)c3)CC2)c2cc(-c3coc(C4CC4)n3)ccn2)CC1` [Compound 5.39, trans-4-(((trans-4-(3-Cyano-4-methoxyphenyl)cyclohexyl)methyl)(4-(2-cyclopropyloxazol-4-yl)pyridine-2-yl)carbamoyl)cyclohexyl methylcarbamate], at most 250 nM; with `COc1ccc([C@H]2CC[C@H](CN(c3cccc(-c4coc(C(C)C)n4)c3)C(=O)[C@H]3CC[C@H](OC(=O)N4CC(O)C4)CC3)CC2)nc1C` [Compound 7.65, trans-4-((3-(2-Isopropyloxazol-4-yl)phenyl)((trans-4-(5-methoxy-6-methylpyridin-2-yl)cyclohexyl)methyl)carbamoyl)cyclohexyl 3-hydroxyazetidine-1-carboxylate], at most 250 nM.

For `COCCOC1CN(C(=O)O[C@H]2CC[C@H](C(=O)N(C[C@H]3CC[C@H](c4ccc(OC)c(C)n4)CC3)c3cc(-c4coc(C5CC5)n4)ccn3)CC2)C1` [Compound 7.95, trans-4-((4-(2-Cyclopropyloxazol-4-yl)pyridine-2-yl)((trans-4-(5-methoxy-6-methylpyridin-2-yl)cyclohexyl)methyl)carbamoyl)cyclohexyl 3-(2-methoxyethoxy)azetidine-1-carboxylate], the EC50 is at most 250 nM. The figure for `COc1ncc(-c2cccc(N(C[C@H]3CC[C@H](c4ccc(OC)c(C)c4)CC3)C(=O)[C@H]3CC[C@H](C(=O)NCCN(C)C)CC3)c2)s1` [Compound 24.05, trans-N^1-(2-(Dimethylamino)ethyl)-N^4-((trans-4-(4-methoxy-3-methylphenyl)cyc1ohexyl)methyl)-N^4-(3-(2-methoxythiazol-5-yl)phenyl)cyclohexane-1,4-dicarboxamide] is 250 to 1000 nM; for `COc1ccc([C@H]2CC[C@H](CN(c3cc(-c4cnn(C(C)C)c4)ccn3)C(=O)[C@H]3CC[C@H](OC(=O)N4CC(O)C4)CC3)CC2)cc1C#N` [Compound 7.22, trans-4-(((trans-4-(3-Cyano-4-methoxyphenyl)cyclohexyl)methyl)(4-(1-isopropyl-1H-pyrazol-4-yl)pyridin-2-yl)carbamoyl)cyclohexyl 3-hydroxyazetidine-1-carboxylate] it is at most 250 nM. With `COc1ccc([C@H]2CC[C@H](CN(c3cc(-c4cnn(C(C)C)c4)ccn3)C(=O)[C@H]3CC[C@H](NC(=O)CO)CC3)CC2)cc1C` [Compound 26.35, trans-4-(2-Hydroxyacetamido)-N-(4-(1-isopropyl-1H-pyrazol-4-yl)pyridin-2-yl)-N-((trans-4-(4-methoxy-3-methylphenyl)cyclohexyl)methyl) cyclohexanecarboxamide] the figure was at most 250 nM. Turning to `COc1ccc([C@H]2CC[C@H](CN(c3cccc(-c4cnc(C5CC5)s4)c3)C(=O)[C@H]3CC[C@H](NC(=O)CCS(C)(=O)=O)CC3)CC2)cc1C` [Compound 31.14, trans-N-(3-(2-Cyclopropylthiazol-5-yl)phenyl)-N-((trans-4-(4-methoxy-3-methylphenyl)cyclohexyl)methyl)-4-(3-(methylsulfonyl)propanamido) cyclohexanecarboxamide], the EC50 is at most 250 nM. In the case of `COc1ccc([C@H]2CC[C@H](CN(c3cccc(-c4cnc(C5CC5)s4)c3)C(=O)[C@H]3CC[C@H](C(=O)OC)CC3)CC2)nc1C#N` [Compound 18.09, trans-Methyl 4-(((trans-4-(6-cyano-5-methoxypyridin-2-yl)cyclohexyl)methyl)(3-(2-cyclopropylthiazol-5-yl)phenyl)carbamoyl) cyclohexanecarboxylate], the EC50 was at most 250 nM. The figure for `COc1ccc([C@H]2CC[C@H](CN(c3cc(-c4cnn(C(C)C)c4)ccn3)C(=O)[C@H]3CC[C@H](OC(=O)NC4CC4)CC3)CC2)nc1C#N` [Compound 6.33, trans-4-(((trans-4-(6-Cyano-5-methoxypyridin-2-yl)cyclohexyl)methyl) (4-(1-isopropyl-1H-pyrazol-4-yl)pyridin-2-yl)carbamoyl)cyclohexyl cyclopropylcarbamate] is at most 250 nM; for `COc1ccc([C@H]2CC[C@H](CN(c3cc(-c4cnn(C(C)C)c4)ccn3)C(=O)[C@H]3CC[C@H](OC(=O)N4CC(N(C)C)C4)CC3)CC2)nc1C` [Compound 7.58, trans-4-((4-(1-Isopropyl-1H-pyrazol-4-yl)pyridin-2-yl)((trans-4-(5-methoxy-6-methylpyridin-2-yl)cyclohexyl)methyl)carbamoyl)cyclohexyl 3-(dimethylamino)azetidine-1-carboxylate] it is at most 250 nM.
